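Assay format: 96-well plates, 48-hour exposure. GI50 = concentration required for 50% inhibition of growth. TGI is the concentration that stops growth completely.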
Tests used:
Assay in all cases: NCI-60 cell line screen, 48 h
A549 NSCLC = system: A549 NSCLC
CCRF-CEM leukemia = system: CCRF-CEM leukemia
HCT-116 colon = system: HCT-116 colon
HOP-92 NSCLC = system: HOP-92 NSCLC
KM12 colon = system: KM12 colon
M14 melanoma = system: M14 melanoma
MALME-3M melanoma = system: MALME-3M melanoma
NCI-H460 lung = system: NCI-H460 lung
OVCAR-8 ovarian = system: OVCAR-8 ovarian
SN12C renal = system: SN12C renal
SNB-19 CNS = system: SNB-19 CNS
SNB-75 CNS = system: SNB-75 CNS
HT29 colon = system: HT29 colon
IGROV1 ovarian = system: IGROV1 ovarian
SK-OV-3 ovarian = system: SK-OV-3 ovarian
MDA-MB-435 = system: MDA-MB-435
PC-3 prostate = system: PC-3 prostate
NCI/ADR-RES ovarian = system: NCI/ADR-RES ovarian

| Structure (SMILES) | TGI (A549 NSCLC) [µM] | TGI (CCRF-CEM leukemia) [µM] | TGI (HCT-116 colon) [µM] | TGI (HOP-92 NSCLC) [µM] | TGI (KM12 colon) [µM] | TGI (M14 melanoma) [µM] | TGI (MALME-3M melanoma) [µM] | TGI (NCI-H460 lung) [µM] | TGI (OVCAR-8 ovarian) [µM] | TGI (SN12C renal) [µM] | TGI (SNB-19 CNS) [µM] | TGI (SNB-75 CNS) [µM] | TGI (HT29 colon) [µM] | TGI (IGROV1 ovarian) [µM] | TGI (SK-OV-3 ovarian) [µM] | TGI (MDA-MB-435) [µM] | TGI (PC-3 prostate) [µM] | TGI (NCI/ADR-RES ovarian) [µM] | GI50 (HOP-92 NSCLC) [µM] |
| --- | --- | --- | --- | --- | --- | --- | --- | --- | --- | --- | --- | --- | --- | --- | --- | --- | --- | --- | --- |
| CC(C)OP(=O)(OC(C)C)/C(=N/Nc1ccc([N+](=O)[O-])cc1)NNC(=O)c1ccccc1 | > 100 | 55.4 | > 100 | 61.3 | > 100 | > 100 | > 100 | > 100 | > 100 | > 100 | > 100 | > 100 |  |  |  |  |  |  |  |
| Cc1cc(N(CCC#N)CCC#N)ccc1/C=C(\N=[N+]=[N-])C(=O)NC(=O)COc1ccccc1 | > 100 | > 100 | > 100 | > 100 | > 100 | > 100 | > 100 | > 100 | > 100 | > 100 | > 100 | > 67.2 | > 100 | > 100 | > 100 |  |  |  |  |
| O=C(O)c1ccccc1/C=N\N(CCO)C1=NCCN1 | > 100 | > 100 | > 100 | > 100 | > 100 | > 100 | > 100 | > 100 | > 100 | > 100 | > 100 | > 100 | > 100 | > 100 | > 100 | > 100 | > 100 |  |  |
| Cc1cc2nc3c(C#N)c4c(c(Cl)n3c2cc1C)CCC4 |  |  | 29.6 | 95.5 | > 100 |  | > 100 | > 100 | 37.4 | 33.8 |  | > 100 |  |  | > 100 | 42.5 |  | 46.2 |  |
| CN(CCO)c1nc(=O)c2c(n1C1OC(CO)C(O)C(O)C1O)CCCC2 (stereo unspecified) | > 100 | > 100 | > 100 | > 100 | > 100 | > 100 | > 100 | > 100 | > 100 | > 100 | > 100 | > 100 | > 100 | > 100 | > 100 |  |  |  |  |
| CCCC1(N2C(=O)c3ccc4c5c(ccc(c35)C2=O)N(C2(CCC)CCCCC2)C4=O)CCCCC1 | > 100 |  | > 100 | > 100 | > 100 | > 100 | > 100 | > 100 | > 100 | > 100 | > 100 |  | > 100 |  | > 100 | > 100 | > 100 | > 100 |  |
| CCOC(=O)C1=C(C)C2C3C(=O)OC(=O)C3C1(C)C1C(=O)OC(=O)C21 (stereo unspecified) | > 100 | > 100 | > 100 | > 100 | > 100 | > 100 | > 100 | > 100 | > 100 | > 100 | > 100 | > 100 | > 100 | > 100 | > 100 |  |  |  |  |
| CCOC(=O)C(C(=O)OCC)S(C)(=O)=O | > 100 | > 100 | > 100 | > 100 | > 100 | > 100 | > 100 | > 100 | > 100 | > 100 | > 100 |  | > 100 | > 100 | > 100 |  |  |  |  |
| N#CCCN(c1ccc(C=Nc2ccc(C(=O)O)cc2)cc1)S(=O)(=O)c1ccccc1 | > 100 | > 100 | > 100 | > 100 | > 100 | > 100 | > 100 | > 100 | > 100 | > 100 | > 100 | > 100 | > 100 | > 100 | > 100 |  |  |  |  |
| COc1ccccc1NC(=O)C(=O)C(c1cnc2ccc([N+](=O)[O-])cc2n1)[N+](=O)[O-] (stereo unspecified) | > 100 | > 100 | > 100 | > 100 | > 100 | > 100 | > 100 | > 100 | > 100 | > 100 | > 100 | > 100 | > 100 | > 100 | > 100 |  |  |  |  |
| Cc1ccc2nc(-c3nccn3C)cc(C(=O)NC(C)CN(C)C)c2c1 (stereo unspecified) | > 100 |  | > 100 | > 100 | > 100 | > 100 | > 100 | > 100 | > 100 | > 100 | > 100 | > 100 | > 100 | > 100 |  | > 100 | > 100 | > 100 |  |
| CC(=O)Oc1ccc(C)c2c1[C@H]1CC[C@]3(C)[C@@H](OC(C)=O)CC[C@H]3[C@@H]1CC2 | 50.8 | 55.2 | 31.2 | 30.9 | 35.1 | 32.2 | 30.4 | 37.4 | 58.3 | 39 | 32.6 | 54.5 | 33.5 | 36.4 |  | 32.9 |  | 40.4 |  |
| CCCCCCCC(=O)OC(COC(=O)Cc1ccccc1)COC(=O)C(C)(C)C (stereo unspecified) | > 100 | > 100 | > 100 | > 100 |  | > 100 | > 100 | > 100 | > 100 | > 100 | > 100 |  |  | > 100 | > 100 |  |  |  |  |
| COc1cccc(C2c3cc4c(cc3OC(NNC(N)=O)C2C)OCO4)c1OC (stereo unspecified) | 56 | > 100 | 27.6 | 57.8 | 62 | 40.6 | 73.8 | 68 | 17.9 | > 100 | > 100 | 59.3 | 62.3 | 83.2 | 85.3 | 70.1 | 55 |  |  |
| O=C1CS(=O)c2ccccc2N1 (stereo unspecified) | > 100 | > 100 | > 100 | > 100 | > 100 | > 100 | > 100 | > 100 | > 100 | > 100 | > 100 | > 100 | > 100 | > 100 | > 100 |  |  |  |  |
| CC1=C(N2CC2)C(=O)C(C)=C(N2CC2)C1=O | 75.7 | 3.3 | 19.3 | 0.988 | 1.89 | 1.25 | 0.541 | 0.634 | 2.3 | 1.59 | 8.33 | 1.57 | 1 | 1.31 | 2.9 |  |  | 0.0574 |  |
| Cc1nc2c(n1Cc1ccc(F)cc1)C(=O)c1ccccc1C2=O | > 100 | > 100 | > 100 |  | > 100 | > 100 | 31.7 | > 100 | > 100 | > 100 | > 100 | > 100 | > 100 | > 100 | > 100 |  |  |  |  |
| COc1ccc(OC)c(CCc2ccccc2CC(=O)O)c1 | > 100 | > 100 | > 100 | > 100 | > 100 | > 100 | > 100 | > 100 | > 100 | > 100 | > 100 | > 100 | > 100 | > 100 | > 100 |  |  |  |  |
| COc1c(-c2ccc(F)cc2)oc2c(CC(=O)O)cccc2c1=O | > 100 | > 100 | > 100 |  |  | > 100 | > 100 |  | > 100 | > 100 |  |  | > 100 | > 100 | > 100 | > 100 | > 100 | > 100 |  |
| N#Cc1c2c(c(Nc3cccc(C(F)(F)F)c3)n3c1nc1ccccc13)CCCC2 |  |  | > 100 | 22.5 | > 100 |  | 85.7 | > 100 | 34.1 | 88.8 |  | 57.3 | 56.4 |  | 48 | > 100 |  | 51.8 |  |
| COc1cc2cnc3c4cc(O)ccc4ccc3c2cc1OC | > 100 | > 100 | > 100 | > 100 | > 100 | > 100 | > 100 | > 100 | > 100 | > 100 | > 100 | > 100 | > 100 | > 100 | > 100 |  |  |  |  |
| c1cc2cc(Cc3ccc4[nH]ccc4c3)ccc2[nH]1 | 34.8 | > 100 | 33.1 | 34.9 | 30.9 | 37.7 | 34.4 | 31.1 |  | 31.7 | 47.5 | 38.6 | 33.1 | 39.4 | 47.8 | 45.7 | 30.1 |  |  |
| O=C(N/N=C/c1cc(Cl)cc(Cl)c1[OH2+])c1ccncc1.O=S(=O)([O-])[O-].[Fe+2] | 53.9 | 15.8 | 29.6 | 9.66 | 29.4 | 41.1 | 29.3 | 22.4 | > 100 | 79.3 | > 100 | > 100 | 28.6 | 15.4 | > 100 |  |  |  | 3.71 |
| CCCc1cn2c(/C=N/N=C(N)N)c(-c3ccc([N+](=O)[O-])cc3)nc2s1 | 2.91 | 1.3 | 1.6 | 74 |  | 3.18 | 3.86 |  | 3.21 | 3.06 | 2.9 |  | > 100 | 3.05 | 2.92 | 3.1 | 7.01 |  |  |
| O=C(O)C1Cc2[nH]c3ccccc3c2C2CCCC12 (stereo unspecified) | > 100 | > 100 | > 100 | > 100 | > 100 | > 100 | > 100 | > 100 | > 100 | > 100 | > 100 | > 100 |  | > 100 | > 100 |  |  |  |  |
| N#C/C(=C\c1ccccc1F)C(=O)c1ccccc1 | > 100 | > 100 | > 100 | > 100 | > 100 | > 100 | > 100 |  | > 100 | > 100 | > 100 |  | > 100 | > 100 | > 100 |  |  |  |  |
| C=C1C(=O)O[C@H]2C1C[C@H](O)/C(C)=C/CC[C@@]1(C)O[C@H]21 (stereo partly specified) | > 100 | 13.6 | 28.6 | 33 | 30.1 | 23.9 | 19.5 |  | 37.6 | 33.8 | > 100 | > 100 | 50.9 | 28.3 | > 100 | 37.3 |  | 33.7 |  |
| O=C1Nc2n[nH]c(=S)n2NC12c1ccccc1-c1ccccc12 | > 100 |  | 93.6 | > 100 |  | > 100 | > 100 | > 100 | > 100 | > 100 | > 100 | > 100 | > 100 | > 100 | > 100 | 37.4 | > 100 | > 100 |  |
| COc1cc2c(c(OC)c1)C(=O)C(=O)C(CC1(C)OCCCO1)=C2 | 28.3 | 4.72 | 10.3 | 4.41 | 29.7 | 24.3 | 20.4 | 26.6 | 28.6 | 26.8 | > 53.2 | 33.9 | 35 | 27.8 | 30.2 |  |  |  |  |
| O=C(O)CCC1(CCC(=O)O)CCCCCCCCC(CCC(=O)O)(CCC(=O)O)C(=O)C1=O | > 100 |  | > 100 | > 100 | > 100 | > 100 | > 100 | > 100 | > 100 | > 100 | > 100 | > 100 | > 100 |  | > 100 | > 100 | > 100 | > 100 |  |

Reference: PubChem BioAssay (NCI)
